Reference: US7189711B2, “2, 3-benzodiazepine derivatives and pharmaceutical compositions containing the same as the active ingredient” (Egis Gyogyszergyar RT., priority 2000, dated 2007)

Key:
male NMRI mice = experiment: Neuroprotective effect in magnesium chloride induced global cerebral ischemia in mice; assay type: in vivo; details: intraperitoneal, 30 minutes before i.v. saturated magnesium chloride; linear regression over four doses
Procedure: Neuroprotective Effect in Magnesium Chloride Induced Global Cerebral Ischemia in Mice
The examination was carried out on groups consisting of 10 male NMRI mice weighing 20–25 g. The compounds to be examined were dissolved in a mixture of 5 volumes of 5M aqueous hydrochloric acid and 95 volumes of water, then the pH value of the solution was adjusted to 3 by the addition of 1M aqueous sodium hydroxide solution. The solution obtained was administered intraperitoneally in a volume of 10 ml/kg. Each compound was tested at four increasing dose levels, and a further group of animals was treated only with the vehicle (the latter was the control group). 30 minutes after treatment, all mice received an intravenous injection of saturated aqueous magnesium chloride solution in a volume of 5 ml/kg. This injection caused an immediate cardiac arrest and complete cerebral ischemia. The increase in survival time (i.e. the interval between the injection of magnesium chloride and the last observable gasp) was considered as a measure of the neuroprotective effect according to Berga et al. [Berga, P. et al., Synergistic interactions between piracetam and dihydroergocristine in some animal models of cerebral hypoxia and ischaemia, Arzneim. -Forsch., 36, 1314–1320 (1986)]. Percentage changes in survival time were calculated in comparison to that measured in the control group, and, from the values obtained, the dose prolonging survival by 50% (PD50) was calculated by linear regression analysis.

male Wistar rats = experiment: Duration of action in rats as assessed from the decrease in body core temperature (radiotelemetry); assay type: in vivo; details: intraperitoneal, mean of 6 animals
Procedure: Duration of Action in Rats as Assessed From the Decrease in Body Core Temperature
One week prior to treatments, 6 male Wistar rats were anaesthetized by administering 60 mg/kg of pentobarbital sodium [sodium 5-ethyl-5-(1-methylbutyl)barbiturate]intraperitoneally. Using sterile surgical procedures, TL11M2C50-PXT or TA10TA-F40 type radiotelemetry transmitters (Data Sciences International, St. Paul, Minn., USA) were implanted into the peritoneal cavity of the animals. The transmitters permitted continuous monitoring of the core body temperature. After implantation, the rats were treated with an antibiotic (benzathine-benzylpenicillin was administered in a dose of 1 ml/kg i.m.). [The chemical name of benzathine-benzylpenicillin: [2S-(2α,5α,6β)]-3,3-dimethyl-7-oxo-6-[(phenoxyacetyl)amino]-4-thia-1-azabicyclo[3.2.0]heptane-2-carboxylic acid]. The animals were housed individually in type 2 plastic rat cages with free access to food and tap water.
The compounds to be examined were dissolved in a mixture of 5 volumes of 5M aqueous hydrochloric acid and 95 volumes of water, then the pH value of the solution was adjusted to 3 by the addition of 1M aqueous sodium hydroxide solution. The solution obtained was administered intraperitoneally in a volume of 10 ml/kg.
Radio signals emitted by the transmitters were detected by RLA1000 or RLA2000 type receivers placed under each cage. Data were collected and saved by a Dataquest IV computerized data acquisition system. The computer was set to sample body temperature for 10 seconds in every second minute. Mean values for 30 min. periods over the whole day were calculated running the “sort utility” of the Dataquest IV system. The upper and lower limits of the evaluating routine were set to exclude biologically improbable values. Individual body temperature curves were averaged for the 6 animals.
Peak effect (PE) was measured as the maximum decrease in body temperature in comparison to the last value prior to treatment (control value). Using the mean values, duration of action (D) of the compounds was determined. This is the time interval from treatment to return of body temperature to the control level.

[1] = N-acetylation in rat liver slices (N-acetyl metabolite by HPLC); assay type: in vitro ADME, Wistar rats; details: 50 μM compound, 37° C.
Procedure: Reduction of the rate of N-acetylation due to ortho substitution
Liver slices of Wistar rats were incubated in oxigenized Krebs-Ringer solution at 37° C. in the presence of 50 μM of 2,3-benzodiazepine derivative examined. 0.5 ml aliquots were taken at the beginning of the examination, then after 30 and 60 minutes. Plasma proteins were precipitated with perchloric acid and, after alkalization, the 2,3-benzodiazepine derivatives were extracted with chloroform. The chloroform solutions were evaporated to dryness, the residue was dissolved in the corresponding eluent. The 2,3-benzodiazepine derivative used and the N-acetyl metabolite thereof were determined by high pressure liquid chromatography (Beckman System Gold HPLC, C-18 reversed-phase column) using an UV detector (at 240 nm). Different eluents were used for the optimal separation of the compounds. In case of the compound according to Example 1 and the corresponding 1-(4-amino-phenyl) analogue, the eluent consisted of a mixture of 50% of 2 mM heptafluoro-butyric acid, 25% of methanol and 25% of acetonitrile. For the compound according to Example 3 and the corresponding 1-(4-amino-phenyl) analogue, the eluent was a mixture of 50% of 2 mM heptafluorobutyric acid, 20% of methanol and 30% of acetonitrile. For the compound according to Example 4 and the corresponding 1-(4-amino-phenyl) analogue, the eluent consisted of a mixture of 50% of 2 mM heptafluorobutyric acid and 50% of acetonitrile.
The percentage of N-acetyl metabolite content of the sample taken at a certain time was calculated by dividing the hundredfold of the peak area of the metabolite with the sum of the peak areas of the 2,3-benzodiazepine derivative used and the N-acetyl metabolite. The results obtained are shown in Table 1 in which the concentrations determined after 0, 30 and 60 minutes are indicated.

Compound COc1ccc2c(c1)C(c1ccc(N)c(C)c1)=NN(C(C)=O)C(C)C2 (racemic) has a melting point of 169 to 171 °C.

CC(=O)N1N=C(c2ccc(N)c(C)c2)c2ccc(Cl)cc2CC1C (racemic) gave a melting point of 200 to 205 °C.

For CC(=O)N1N=C(c2ccc(N)c(C)c2)c2cc(Cl)ccc2CC1C (racemic) [Example 1, (±)-3-Acetyl-1-(4-amino-3-methylphenyl)-4,5-dihydro-8-chloro-4-methyl-3H-2,3-benzodiazepine], the “PD50 (dose prolonging survival by 50%)” value (male NMRI mice) was 4.6 mg/kg, the “D (duration of action, time from treatment to return of body temperature to control level)” value (male Wistar rats) was 20 h and the “PE (peak effect, maximum decrease in body temperature vs. last value prior to treatment)” value (male Wistar rats) was −2.34 Δ° C.

For CCC(=O)N1N=C(c2ccc(N)c(C)c2)c2cc(Cl)ccc2CC1C (racemic) [Example 2, (±)-1-(4-Amino-3-methylphenyl)-4,5-dihydro-8-chloro-4-methyl-3-propionyl-3H-2,3-benzodiazepine], the “D (duration of action, time from treatment to return of body temperature to control level)” value (male Wistar rats) was 6 h and the “PE (peak effect, maximum decrease in body temperature vs. last value prior to treatment)” value (male Wistar rats) was −2.04 Δ° C.

With CC(=O)N1N=C(c2ccc(N)c(Cl)c2)c2cc(Cl)ccc2CC1C (racemic) [Example 3, (±)-3-Acetyl-1-(4-amino-3-chlorophenyl)-4,5-dihydro-8-chloro-4-methyl-3H-2,3-benzodiazepine] the melting point was 143 to 144 °C.

With CC(=O)N1N=C(c2ccc(N)c(C)c2)c2cc(Cl)c(Cl)cc2CC1C (racemic) [Example 4, (±)-3-Acetyl-1-(4-amino-3-methylphenyl)-4,5-dihydro-7,8-dichloro-4-methyl-3H-2,3-benzodiazepine] the “PD50 (dose prolonging survival by 50%)” value (male NMRI mice) was 9.0 mg/kg, the “D (duration of action, time from treatment to return of body temperature to control level)” value (male Wistar rats) was 19 h and the “PE (peak effect, maximum decrease in body temperature vs. last value prior to treatment)” value (male Wistar rats) was −3.09 Δ° C.

For CCC(=O)N1N=C(c2ccc(N)c(C)c2)c2cc(Cl)c(Cl)cc2CC1C (racemic) [Example 5, (±)-1-(4-Amino-3-methylphenyl)-4,5-dihydro-7,8-dichloro-4-methyl-3-propionyl-3H-2,3-benzodiazepine], the “PD50 (dose prolonging survival by 50%)” value (male NMRI mice) was 12.3 mg/kg.

For CC(=O)N1N=C(c2ccc(N)cc2)c2cc(Cl)ccc2CC1C (stereo not shown) [Example 1a, 3-acetyl-1-(4-amino-phenyl)-4,5-dihydro-8-chloro-4-methyl-3H-2,3-benzo-diazepine, reference compound], the “PD50 (dose prolonging survival by 50%)” value (male NMRI mice) was 10.4 mg/kg.

For CC(=O)N1N=C(c2ccc(N)cc2)c2cc(Cl)ccc2CC1C (stereo not shown) [Example 1a, 3-acetyl-1-(4-amino-phenyl)-4,5-dihydro-8-chloro-4-methyl-3H-2,3-benzo-diazepine], the “Amount of N-acetyl metabolite in %” value ([1]; incubation time 0 min) was 0%, the “Amount of N-acetyl metabolite in %” value ([1]; incubation time 30 min) was 18% and the “Amount of N-acetyl metabolite in %” value ([1]; incubation time 60 min) was 31%.

For CCC(=O)N1N=C(c2ccc(N)cc2)c2cc(Cl)ccc2CC1C (stereo not shown) [Example 2a, 1-(4-aminophenyl)-4,5-dihydro-8-chloro-4-methyl-3-propionyl-3H-2,3-benzo-diazepine, reference compound], the “D (duration of action, time from treatment to return of body temperature to control level)” value (male Wistar rats) was 4 h and the “PE (peak effect, maximum decrease in body temperature vs. last value prior to treatment)” value (male Wistar rats) was −1.87 Δ° C.

In the case of CC(=O)N1N=C(c2ccc(N)cc2)c2cc(Cl)c(Cl)cc2CC1C (stereo not shown) [Example 4a, 3-acetyl-1-(4-amino-phenyl)-4,5-dihydro-7,8-dichloro-4-methyl-3H-2,3-benzo-diazepine, reference compound], the “PD50 (dose prolonging survival by 50%)” value (male NMRI mice) is reported as 11.0 mg/kg, the “D (duration of action, time from treatment to return of body temperature to control level)” value (male Wistar rats) is reported as 3.5 h and the “PE (peak effect, maximum decrease in body temperature vs. last value prior to treatment)” value (male Wistar rats) is reported as −1.72 Δ° C.

For CCC(=O)N1N=C(c2ccc(N)cc2)c2cc(Cl)c(Cl)cc2CC1C (stereo not shown) [Example 5a, 1-(4-aminophenyl)-4,5-dihydro-7,8-dichloro-4-methyl-3-propionyl-3H-2,3-benzo-diazepine, reference compound], the “PD50 (dose prolonging survival by 50%)” value (male NMRI mice) was 14.6 mg/kg.
